Results as given in patent publication US10934310B2, “Inhibitors of Bruton's tyrosine kinase and method of their use” (JANSSEN PHARMACEUTICA NV, priority 2015, dated 2021).

Molecular target: unphosphorylated-BTK kinase domain (UP-BTK), GST-tagged human BTK (389-659aa) (Homo sapiens (Human), UniProt Q06187)
Assay: BTK Kinase Lanthascreen Binding Assay
Conditions: Lanthascreen binding, 60 minutes incubation; pIC50 = negative log of the IC50 in molar
Procedure: BTK Kinase Lanthascreen Binding Assay:
A BTK kinase lanthascreen binding assay monitors compound binding to unphosphorylated-BTK kinase domain (UP-BTK), by competing with a fluorescent labeled tracer. […] Data were analyzed using Xlfit™ version 5.3 from ID Business Solutions (Guildford), Microsoft Excel add-in. pIC50 refers to the negative log of the IC50 in molar.

Chain of unphosphorylated-BTK kinase domain (UP-BTK), GST-tagged human BTK (389-659aa) (Q06187 389-659): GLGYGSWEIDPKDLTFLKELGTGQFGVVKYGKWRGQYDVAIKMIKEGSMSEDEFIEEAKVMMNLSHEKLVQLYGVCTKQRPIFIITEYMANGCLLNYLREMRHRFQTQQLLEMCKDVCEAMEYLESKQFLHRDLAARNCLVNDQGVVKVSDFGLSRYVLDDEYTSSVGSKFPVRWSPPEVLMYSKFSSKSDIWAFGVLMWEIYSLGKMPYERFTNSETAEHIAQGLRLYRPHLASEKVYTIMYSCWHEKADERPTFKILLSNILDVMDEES

BTK_I_binding pIC50 | Compound
8.38 | C=CC(=O)N[C@H]1CCC[C@H]1NC(=O)c1sc2nccc3c2c1NC(=O)N3c1ccc(Oc2ccccn2)cc1 [Example 437, N-((1R,2S)-2-Acrylamidocyclopentyl)-4-oxo-5-(4-(pyridin-2-yloxy)phenyl)-4,5-dihydro-3H-1-thia-3,5,8-triazaacenaphthylene-2-carboxamide]
8.02 | C=CC(=O)N[C@H]1CCC[C@H]1NC(=O)c1sc2nccc3c2c1NC(=O)N3c1cccc(C(C)C)c1 [Example 438, N-((1R,2S)-2-Acrylamidocyclopentyl)-5-(3-isopropylphenyl)-4-oxo-4,5-dihydro-3H-1-thia-3,5,8-triazaacenaphthylene-2-carboxamide]
6.84 | C=CC(=O)N[C@H]1CCCC[C@H]1NC(=O)c1sc2nccc3c2c1NC(=O)N3c1ccc(Oc2ccccn2)cc1 [Example 442, N-((1R,2S)-2-Acrylamidocyclohexyl)-4-oxo-5-(4-(pyridin-2-yloxy)phenyl)-4,5-dihydro-3H-1-thia-3,5,8-triazaacenaphthylene-2-carboxamide]
6.32 | Cc1cc(OC(C)C)ccc1N1C(=O)Nc2c(C(=O)N[C@@H]3CCC[C@@H]3N)sc3nccc1c23 [Example 453, N-((1R,2S)-2-Aminocyclopentyl)-5-(4-isopropoxy-2-methylphenyl)-4-oxo-4,5-dihydro-3H-1-thia-3,5,8-triazaacenaphthylene-2-carboxamide]
6.21 | CC(=O)N[C@@H]1CC[C@H](NC(=O)c2sc3nccc4c3c2NC(=O)N4c2ccc(OC(C)C)cc2C)C1 [Example 454, N-((1S,3R)-3-Acetamidocyclopentyl)-5-(4-isopropoxy-2-methylphenyl)-4-oxo-4,5-dihydro-3H-1-thia-3,5,8-triazaacenaphthylene-2-carboxamide]
5.81 | N[C@@H]1CCCC[C@@H]1NC(=O)c1sc2nccc3c2c1NC(=O)N3c1ccc(Oc2ccccc2)cc1 [Example 457, N-((1S,2R)-2-Aminocyclohexyl)-4-oxo-5-(4-phenoxyphenyl)-4,5-dihydro-3H-1-thia-3,5,8-triazaacenaphthylene-2-carboxamide]
7.53 | C=CC(=O)N[C@H]1CCC[C@@H]1NC(=O)c1sc2nccc3c2c1NC(=O)N3c1ccc(Oc2ccccc2)cc1C [Example 458, N-((1S,2S)-2-Acrylamidocyclopentyl)-5-(2-methyl-4-phenoxyphenyl)-4-oxo-4,5-dihydro-3H-1-thia-3,5,8-triazaacenaphthylene-2-carboxamide]
7.13 | C=CC(=O)N[C@@H]1CCC[C@@H]1NC(=O)c1sc2nccc3c2c1NC(=O)N3c1ccc(Oc2ccccc2)cc1C [Example 459, N-((1S,2R)-2-Acrylamidocyclopentyl)-5-(2-methyl-4-phenoxyphenyl)-4-oxo-4,5-dihydro-3H-1-thia-3,5,8-triazaacenaphthylene-2-carboxamide]
6.78 | Cc1cc(Oc2cccc(COc3ccccc3C#N)c2)ccc1N1C(=O)Nc2c(C(=O)NC3CCCCC3)sc3nccc1c23 [Example 460, 5-(4-(3-((2-Cyanophenoxy)methyl)phenoxy)-2-methylphenyl)-N-cyclohexyl-4-oxo-4,5-dihydro-3H-1-thia-3,5,8-triazaacenaphthylene-2-carboxamide]
6.46 | Cc1cc(Oc2cccc(COc3ccccc3C#N)c2)ccc1N1C(=O)Nc2c(NC(=O)C3CC3)sc3nccc1c23 [Example 461, N-(5-(4-(3-((2-Cyanophenoxy)methyl)phenoxy)-2-methylphenyl)-4-oxo-4,5-dihydro-3H-1-thia-3,5,8-triazaacenaphthylen-2-yl)cyclopropanecarboxamide]
6.33 | Cc1cc(Oc2ccccc2)ccc1N1C(=O)Nc2c(C(=O)NC3CCCCC3)sc3nccc1c23 [Example 462, N-Cyclohexyl-5-(2-methyl-4-phenoxyphenyl)-4-oxo-4,5-dihydro-3H-1-thia-3,5,8-triazaacenaphthylene-2-carboxamide]
6.22 | O=C(NC1CCCCC1)c1sc2nccc3c2c1NC(=O)N3c1ccc(Oc2ccccc2)cc1 [Example 463, N-Cyclohexyl-4-oxo-5-(4-phenoxyphenyl)-4,5-dihydro-3H-1-thia-3,5,8-triazaacenaphthylene-2-carboxamide]
7.25 | C=CC(=O)N[C@H]1CCC[C@H]1NC(=O)c1sc2nccc3c2c1NC(=O)N3c1cnc(Oc2ncccn2)cc1C [Example 465, N-((1R,2S)-2-Acrylamidocyclopentyl)-5-(4-methyl-6-(pyrimidin-2-yloxy)pyridin-3-yl)-4-oxo-4,5-dihydro-3H-1-thia-3,5,8-triazaacenaphthylene-2-carboxamide]
6.52 | C=CC(=O)N[C@H]1CCC[C@H]1NC(=O)c1sc2nccc3c2c1NC(=O)N3c1ccc(Oc2ncccn2)nc1C [Example 468, N-((1R,2S)-2-Acrylamidocyclopentyl)-5-(2-methyl-6-(pyrimidin-2-yloxy)pyridin-3-yl)-4-oxo-4,5-dihydro-3H-1-thia-3,5,8-triazaacenaphthylene-2-carboxamide]
6.20 | C=CC(=O)N[C@H]1CCC[C@H]1NC(=O)c1sc2nccc3c2c1NC(=O)N3c1ccc(Oc2cccnn2)cn1 [Example 476, N-((1R,2S)-2-Acrylamidocyclopentyl)-4-oxo-5-(5-(pyridazin-3-yloxy)pyridin-2-yl)-4,5-dihydro-3H-1-thia-3,5,8-triazaacenaphthylene-2-carboxamide]
6.85 | C=CC(=O)N[C@H]1CCC[C@H]1NC(=O)c1sc2nccc3c2c1NC(=O)N3c1ccc(-n2ccccc2=O)nc1C [Example 477, N-((1R,2S)-2-Acrylamidocyclopentyl)-5-(6′-methyl-2-oxo-2H-[1,2′-bipyridin]-5′-yl)-4-oxo-4,5-dihydro-3H-1-thia-3,5,8-triazaacenaphthylene-2-carboxamide]

Same assay, conditions: read-out: BTK_I_binding pIC50 (converted)

IC50 | Compound
> 1 µM | CC(C)c1cccc(N2C(=O)Nc3c(C(=O)N[C@@H]4CCC[C@@H]4N)sc4nccc2c34)c1 [Example 455, N-((1R,2S)-2-Aminocyclopentyl)-5-(3-isopropylphenyl)-4-oxo-4,5-dihydro-3H-1-thia-3,5,8-triazaacenaphthylene-2-carboxamide]
> 1 µM | Cc1cc(OC(C)C)ccc1N1C(=O)Nc2c(C(=O)N[C@@H]3CCC[C@H]3O)sc3nccc1c23 [Example 456, N-((1R,2R)-2-Hydroxycyclopentyl)-5-(4-isopropoxy-2-methylphenyl)-4-oxo-4,5-dihydro-3H-1-thia-3,5,8-triazaacenaphthylene-2-carboxamide]
> 1 µM | C=CC(=O)N[C@H]1CCCC[C@H]1NC(=O)c1sc2nccc3c2c1NC(=O)N3c1cnc(Oc2cccnn2)cc1C [Example 467, N-((1R,2S)-2-Acrylamidocyclohexyl)-5-(4-methyl-6-(pyridazin-3-yloxy)pyridin-3-yl)-4-oxo-4,5-dihydro-3H-1-thia-3,5,8-triazaacenaphthylene-2-carboxamide]
0.0229 µM | C=CC(=O)N[C@H]1CCC[C@H]1NC(=O)c1sc2nccc3c2c1NC(=O)N3c1ccc(Oc2ccccn2)nc1C [Example 478, N-((1R,2S)-2-Acrylamidocyclopentyl)-5-(2-methyl-6-(pyridin-2-yloxy)pyridin-3-yl)-4-oxo-4,5-dihydro-3H-1-thia-3,5,8-triazaacenaphthylene-2-carboxamide]
